Values of other authors, collected in US20070203140A1, “N-hydroxyguanidines as modulators of indoleamine 2,3-dioxygenase” (priority 2006, published 2007).

How the values were obtained:
[1] = system: LLC tumors; conditions: LLC tumors in C57B1/6 mice, versus placebo
[2] = system: P815 tumor; conditions: pre-immunized immune-competent mice

For `Cn1cc(C[C@H](N)C(=O)O)c2ccccc21` [Example 1-MT, 1-methyl-tryptophan], the formation of tumors [1] is given as “markedly delayed” and the growth of tumors [2] is given as “inhibited”.
